In patent publication US20120035206A1, “PREPARATION AND APPLICATION OF NOVEL ANTIBACTERIAL AND ANTICANCER COMPOUNDS AND THEIR DERIVATIVES” (priority 2009, published 2012):
Values after ≈ are worked out from the molar mass of the structure shown.

Key:
Type in all cases: cell-based
[1] = tested on: HTB-94; assay: In vitro anticancer MTT experiment; settings: concentration 5 ug/ml, 48 h or 72 h, read-out: inhibition ratio HTB-94
Procedure, shortened: (§1)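 Cells seeded (6000-7000/well) → 12 h at 37° C., 5% CO2 → compound 48 or 72 h → MTT 4 h → DMSO → A570. % inhibition vs untreated and medium-only wells, at 5 ug/ml.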

[2] = tested on: HTB-131MDA-MB-453; assay: In vitro anticancer MTT experiment; settings: concentration 5 ug/ml, 48 h or 72 h, read-out: inhibition ratio HTB-131MDA-MB-453
Procedure, shortened: as §1

[3] = tested on: B01092; assay: In vitro anticancer MTT experiment; settings: concentration 5 ug/ml, 48 h or 72 h, read-out: inhibition ratio B01092
Procedure, shortened: as §1

[4] = tested on: A375; assay: In vitro anticancer MTT experiment; settings: Homo sapiens, A-375, concentration 5 ug/ml, 48 h or 72 h, read-out: inhibition ratio A375
Procedure, shortened: as §1

[5] = tested on: L428; assay: In vitro anticancer MTT experiment; settings: Homo sapiens, L-428, concentration 5 ug/ml, 48 h or 72 h, read-out: inhibition ratio L428
Procedure, shortened: as §1

[6] = tested on: AS24391; assay: In vitro anticancer MTT experiment; settings: concentration 5 ug/ml, 48 h or 72 h, read-out: inhibition ratio AS24391
Procedure, shortened: as §1

[7] = tested on: HTB-95637; assay: In vitro anticancer MTT experiment; settings: concentration 5 ug/ml, 48 h or 72 h, read-out: inhibition ratio HTB-95637
Procedure, shortened: as §1

[8] = tested on: FTC 133; assay: In vitro anticancer MTT experiment; settings: Homo sapiens, concentration 5 ug/ml, 48 h or 72 h, read-out: inhibition ratio FTC 133
Procedure, shortened: as §1

[9] = tested on: L1210; assay: In vitro anticancer MTT experiment; settings: Mus musculus, concentration 5 ug/ml, 48 h or 72 h, read-out: inhibition ratio L1210
Procedure, shortened: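 Growth inhibition at 5 ug/ml determined by MTT assay after 48 h or 72 h compound exposure at 37° C.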

[10] = tested on: CRL-1469PANC-1; assay: In vitro anticancer MTT experiment; settings: concentration 5 ug/ml, 48 h or 72 h, read-out: inhibition ratio CRL-1469PANC-1
Procedure, shortened: as §1

[11] = tested on: HTB-38HT-29; assay: In vitro anticancer MTT experiment; settings: concentration 5 ug/ml, 48 h or 72 h, read-out: inhibition ratio HTB-38HT-29
Procedure, shortened: as §1

[12] = tested on: SGC7901; assay: In vitro anticancer MTT experiment; settings: Homo sapiens, SGC-7901, concentration 5 ug/ml, 48 h or 72 h, read-out: inhibition ratio SGC7901
Procedure, shortened: as §1

[13] = tested on: M. gypseum; assay: In vitro antibacterial (antifungal) test, two-fold dilution MIC; settings: Nannizzia gypsea, RPMI 1640, culture 2-7 days
[14] = tested on: C. glabrata; assay: as above; settings: Nakaseomyces glabratus, RPMI 1640, culture 2-7 days
[15] = tested on: C. tropicalis; assay: as above; settings: Candida tropicalis, RPMI 1640, culture 2-7 days
[16] = tested on: C. albicans; assay: as above; settings: Candida albicans, read-out: MIC C. albicas
[17] = tested on: C. neoformans; assay: as above; settings: Cryptococcus neoformans, RPMI 1640, culture 2-7 days
[18] = tested on: A. niger; assay: as above; settings: Aspergillus niger, RPMI 1640, culture 2-7 days
[19] = tested on: E. floccosum; assay: as above; settings: Epidermophyton floccosum, RPMI 1640, culture 2-7 days
[20] = tested on: S. schenekn; assay: as above; settings: RPMI 1640, culture 2-7 days
[21] = tested on: C. parapsilosis; assay: as above; settings: Lodderomyces parapsilosis, RPMI 1640, culture 2-7 days
[22] = tested on: CRL-2233SNU-398; assay: In vitro anticancer MTT experiment; settings: concentration 5 ug/ml, 48 h or 72 h, read-out: inhibition ratio CRL-2233SNU-398
Procedure, shortened: as §1

[23] = tested on: CRL-1435PC-3; assay: In vitro anticancer MTT experiment; settings: concentration 5 ug/ml, 48 h or 72 h, read-out: inhibition ratio CRL-1435PC-3
Procedure, shortened: as §1

[24] = tested on: C. Krusei; assay: In vitro antibacterial (antifungal) test, two-fold dilution MIC; settings: Pichia kudriavzevii, RPMI 1640, culture 2-7 days
[25] = tested on: Setosphaeria turcica; assay: as above; settings: Exserohilum turcicum, RPMI 1640, culture 2-7 days
[26] = tested on: gibberella; assay: as above; settings: RPMI 1640, culture 2-7 days
[27] = tested on: Fusarium oxysporum vasinfectum; assay: as above; settings: RPMI 1640, culture 2-7 days
[28] = tested on: Terchoderma; assay: as above; settings: Trichoderma, RPMI 1640, culture 2-7 days

SMILES	inhibition at 5 µg/mL [1]	inhibition at 5 µg/mL [2]	inhibition at 5 µg/mL [3]	inhibition at 5 µg/mL [4]	inhibition at 5 µg/mL [5]	inhibition at 5 µg/mL [6]	inhibition at 5 µg/mL [7]	inhibition at 5 µg/mL [9]	inhibition at 5 µg/mL [10]	inhibition at 5 µg/mL [11]	inhibition at 5 µg/mL [12]	MIC [13]	MIC [14]	MIC [15]	MIC [16]	MIC [17]	MIC [19]	MIC [20]	MIC [21]	MIC [24]	other results
Cc1ccc2c(c1)C(=O)CSC2 [Compound 13]	45.6%	65.5%	43.8%	74.3%	37.5%	45.1%	56.6%	85.6%	62.7%	57.3%	50.6%	16 µg/mL (≈ 89.8 µM)	64 µg/mL (≈ 359 µM)	16 µg/mL (≈ 89.8 µM)	64 µg/mL (≈ 359 µM)	64 µg/mL (≈ 359 µM)	32 µg/mL (≈ 180 µM)	64 µg/mL (≈ 359 µM)	32 µg/mL (≈ 180 µM)		inhibition at 5 µg/mL [8]: 57.8%; MIC [18]: 32 µg/mL (≈ 180 µM)
O=C1/C(=C\Cl)CSc2ccc(F)cc21 [Compound 22, (E)-3-(chloromethylene)-6-fluorothiochroman-4-one]	51%	55.9%	43.6%	56.7%	53.9%	43.5%	36.9%	86.7%	33.3%	47.8%	60.7%	16 µg/mL (≈ 70 µM)	8 µg/mL (≈ 35 µM)	32 µg/mL (≈ 140 µM)	4 µg/mL (≈ 17.5 µM)	16 µg/mL (≈ 70 µM)	16 µg/mL (≈ 70 µM)	8 µg/mL (≈ 35 µM)	16 µg/mL (≈ 70 µM)	16 µg/mL (≈ 70 µM)	inhibition at 5 µg/mL [22]: 49%; inhibition at 5 µg/mL [23]: 30.5%; MIC [25]: 8 µg/mL (≈ 35 µM); MIC [26]: 4 µg/mL (≈ 17.5 µM); MIC [27]: 16 µg/mL (≈ 70 µM); MIC [28]: 32 µg/mL (≈ 140 µM)
Cc1ccc2c(c1)C(=O)/C(=C\O)CS2 [Compound 2]												32 µg/mL (≈ 155 µM)	32 µg/mL (≈ 155 µM)	32 µg/mL (≈ 155 µM)	32 µg/mL (≈ 155 µM)	32 µg/mL (≈ 155 µM)	32 µg/mL (≈ 155 µM)	16 µg/mL (≈ 77.6 µM)	64 µg/mL (≈ 310 µM)	32 µg/mL (≈ 155 µM)	MIC [18]: 64 µg/mL (≈ 310 µM)
O=C1/C(=C/Br)CSc2ccc(F)cc21 [Compound 11, (Z)-3-(bromomethylene)-6-fluorothiochroman-4-one]	36.7%	45.6%	45.5%	47%	50.3%	46.9%	49.5%	86%	39.4%	45.5%	59%	64 µg/mL (≈ 234 µM)	8 µg/mL (≈ 29.3 µM)	64 µg/mL (≈ 234 µM)	64 µg/mL (≈ 234 µM)	32 µg/mL (≈ 117 µM)	32 µg/mL (≈ 117 µM)	32 µg/mL (≈ 117 µM)	32 µg/mL (≈ 117 µM)	16 µg/mL (≈ 58.6 µM)	inhibition at 5 µg/mL [22]: 60.1%; inhibition at 5 µg/mL [23]: 47.9%; inhibition at 5 µg/mL [8]: 56.7%; MIC [25]: 32 µg/mL (≈ 117 µM); MIC [26]: 16 µg/mL (≈ 58.6 µM); MIC [27]: 32 µg/mL (≈ 117 µM); MIC [28]: 16 µg/mL (≈ 58.6 µM)
O=C1/C(=C/Br)CSc2ccc(Cl)cc21 [Compound 10, (Z)-3-(bromomethylene)-6-chlorothiochroman-4-one]	46.8%	53.5%	69%		50.6%	56.7%	40.8%	84.4%	45.1%	54.7%	56.5%	64 µg/mL (≈ 221 µM)	64 µg/mL (≈ 221 µM)	32 µg/mL (≈ 111 µM)	64 µg/mL (≈ 221 µM)	4 µg/mL (≈ 13.8 µM)	64 µg/mL (≈ 221 µM)	64 µg/mL (≈ 221 µM)	8 µg/mL (≈ 27.6 µM)	16 µg/mL (≈ 55.3 µM)	inhibition at 5 µg/mL [22]: 45.6%; inhibition at 5 µg/mL [23]: 46.6%; inhibition at 5 µg/mL [8]: 45.6%; MIC [25]: 32 µg/mL (≈ 111 µM); MIC [26]: 32 µg/mL (≈ 111 µM); MIC [27]: 64 µg/mL (≈ 221 µM); MIC [28]: 16 µg/mL (≈ 55.3 µM)
Cc1ccc2c(c1)C(=O)CCS2 [Compound 1]												64 µg/mL (≈ 359 µM)	64 µg/mL (≈ 359 µM)	32 µg/mL (≈ 180 µM)	64 µg/mL (≈ 359 µM)	64 µg/mL (≈ 359 µM)	32 µg/mL (≈ 180 µM)	32 µg/mL (≈ 180 µM)	64 µg/mL (≈ 359 µM)	32 µg/mL (≈ 180 µM)	MIC [18]: 32 µg/mL (≈ 180 µM)
O=C1/C(=C\Cl)CSc2ccc(Cl)cc21 [Compound 21, (E)-6-chloro-3-(chloromethylene)thiochroman-4-one]		55.6%	35.9%	56.9%	52.3%	60.3%	54.3%	78.4%	63%	54.3%	50%	32 µg/mL (≈ 131 µM)	8 µg/mL (≈ 32.6 µM)	16 µg/mL (≈ 65.3 µM)	8 µg/mL (≈ 32.6 µM)	4 µg/mL (≈ 16.3 µM)	16 µg/mL (≈ 65.3 µM)	16 µg/mL (≈ 65.3 µM)	8 µg/mL (≈ 32.6 µM)	8 µg/mL (≈ 32.6 µM)	inhibition at 5 µg/mL [22]: 46.7%; inhibition at 5 µg/mL [23]: 54.6%; inhibition at 5 µg/mL [8]: 55.9%; MIC [25]: 32 µg/mL (≈ 131 µM); MIC [26]: 8 µg/mL (≈ 32.6 µM); MIC [27]: 32 µg/mL (≈ 131 µM); MIC [28]: 4 µg/mL (≈ 16.3 µM)
Cc1cc2c(cc1F)SC/C(=C\Cl)C2=O [Compound 6, (Z)-3-(chloromethylene)-7-fluoro-6-methylthiochroman-4-one]	45.4%	60.7%	57.9%	65.8%		59.8%	48%	76.9%	53.8%	44.2%	45.3%	4 µg/mL (≈ 16.5 µM)	8 µg/mL (≈ 33 µM)	16 µg/mL (≈ 65.9 µM)	32 µg/mL (≈ 132 µM)	4 µg/mL (≈ 16.5 µM)	32 µg/mL (≈ 132 µM)	16 µg/mL (≈ 65.9 µM)	4 µg/mL (≈ 16.5 µM)	8 µg/mL (≈ 33 µM)	inhibition at 5 µg/mL [22]: 60.1%; inhibition at 5 µg/mL [23]: 56.7%; inhibition at 5 µg/mL [8]: 59.3%; MIC [25]: 4 µg/mL (≈ 16.5 µM); MIC [26]: 8 µg/mL (≈ 33 µM); MIC [27]: 16 µg/mL (≈ 65.9 µM); MIC [28]: 16 µg/mL (≈ 65.9 µM)
OC1/C(=C/Cl)SCc2ccccc21 (centres unmarked) [Compound 20, (Z)-3-(chloromethylene)isothiochroman-4-ol]	45.7%	25.8%	46.9%	50.2%	43.3%	49.8%	56.2%	80.3%	34.5%	45.5%	45.9%	16 µg/mL (≈ 75.2 µM)	8 µg/mL (≈ 37.6 µM)	32 µg/mL (≈ 150 µM)	16 µg/mL (≈ 75.2 µM)	16 µg/mL (≈ 75.2 µM)	16 µg/mL (≈ 75.2 µM)	32 µg/mL (≈ 150 µM)	8 µg/mL (≈ 37.6 µM)	32 µg/mL (≈ 150 µM)	inhibition at 5 µg/mL [22]: 40.4%; inhibition at 5 µg/mL [23]: 45.5%; inhibition at 5 µg/mL [8]: 36.9%; MIC [25]: 8 µg/mL (≈ 37.6 µM); MIC [26]: 16 µg/mL (≈ 75.2 µM)
